Reference: patent US20250195523A1, “ORGANIC MOLECULES FOR TREATING MYELIN PATHOLOGIES” (ICM (INSTITUT DU CERVEAU ET DE LA MOELLE ÉPINIÈRE), priority 2022, published 2025)

Key:
[1] = tested on: primary OPCs purified by magnetic cell sorting (MACS) from neonatal cortices; test: Primary OPC cultures purified by MACS, morphological complexity of OLs; type: cell-based, mice; details: OPCs treated for two days; compared to vehicle; FIG. 2B
Description: Brains were collected from PLPGFP and P4 Swiss mice […] and washed 3 times in PBS 1× (Invitrogen) with 1% of penicillin/streptomycin (Sigma). Cortex and corpus callosum were dissected and dissociated using neural tissue dissociation kit (T) (Miltenyi biotec) and with dissociator (gentleMACS Octo Dissociator, Miltenyi Biotec). OPC magnetic cell sorting was performed using anti-PDGFRα-coupled-beads (CD140a-PDGFRα MicroBead Kit, Miltenyi biotec) and MultiMACS Cell24 Separator Plus (Miltenyi biotec). Cells were collected in PBS and amplified for 2 days in a proliferating medium (with growth factors IGF, EGF, FGF, and PDGFα). Then, 40.000 cells were plated in 24 well plates adherent on coverslips, beforehand coated with poly-ornithine (Merck) diluted in 4 volumes of H2O and washed 3 times. Successively, for 2 days of proliferation and differentiation, medium was added with drugs at 250 nM, 500 nM and 750 nM, and their respective vehicles (DMSO, PBS). Cells were fixed in 4% PBS-paraformaldehyde (thermo fisher) for 10 minutes and washed 3 times in PBS-1×.
For coated-coverslip, blocking was performed in a moist chamber for 30 mn at room temperature (RT) in the blocking buffer (0.05% Triton X-100/10% normal goat serum/PBS). Then, coverslip were incubated for 30 mn with the following primary antibodies at RT. Rat anti-PDGFRα (1:250, BD Biosciences); Mouse anti-CNPase (mlgG1, 1:250; Millipore); Rabbit anti-Btub (1:1000; BABCO); Chicken anti-GFAP (1:500, Avelabs), Mouse anti-MBP (mlgG1, 1:150; Abcam); Rabbit anti-Sox10 (1:1000; Proteintech). Following 3 washing in 0.05% Triton X-100/PBS, coverslips were incubated 30 min at RT in dark with appropriate secondary antibodies conjugated with Alexa Fluor 488, 594 and 647 (1:1000; Molecular Probes or Thermo Fisher) and Dapi (1:5000 from working solution at 5 mg/ml; Life Technologies; D1306). Coverslips were washed 3 times in 0.05% Triton X-100/PBS and mounted with Fluoromount-G (SouthernBiotech).
To evaluate cell specific contribution of the drugs directly in OL differentiation and maturation, we used primary OPCs purified by magnetic cell sorting (MACS) from neonatal cortices (P4).

[2] = tested on: focal demyelination in the corpus callosum of adult mice; test: Lysolecithin (LPC) induced focal de/remyelination model in adult mice, oral administration in drinking water; type: in vivo; details: 7 dpl, oral daily
Description: We weighted and anesthetized 4 months old RjOrl: SWISS mice (Janvier) with isoflurane (induced at 3%, and maintained at 1.2-1.6%). We induced focal demyelinating lesions by injecting 0.5 μl of a solution of 1% lysolecithin (LPC, Sigma in 0.9% NaCl solution) into the corpus callosum. To do so, a glass-capillary connected to a 10 μl Hamilton syringe was fixed and oriented through stereotaxic apparatus (coordinates: 1 mm lateral, 1.3 mm rostral to Bregma, 1.7 mm deep to brain surface). Animals were left to recover for a few hours in a warm chamber. […] Mice was perfused at 2% cold paraformaldehyde (thermos fisher) at 7 DPI.
For in-vivo cryosections (14-μm thick) of lesions, immunohistochemistry was performed after 30 mn drying at RT in a moist chamber. For myelin staining, ethanol treatment (100%) was performed for 10 mn at RT. Briefly, sections were permeabilized and blocked in a blocking buffer for 1 h (0.05% Triton X-100/10% normal goat serum/PBS). Then, cryosections were incubated overnight with the following primary antibodies at 4° C.: Mouse anti-APC (CC1 IgG2B; 1:100, calbiochem); Rabbit anti-Olig2 (1:500; Millipore); Mouse anti-Olig1 (IgG1; 1:500; NeuroMab); Rat anti-CD68 (1:500, AbD SEROTEC/BioRad); Rabbit anti-IBA1 (1:500, Wako Fujifilm); Mouse anti-MOOG (mlgG1, 1:20; Hybridoma). Then sections were washed 3 times in 0.05% Triton X-100/PBS and incubated 1 hour at RT with appropriate secondary antibodies conjugated with Alexa Fluor 488, 594 and 647 (1:1000; Molecular Probes or Thermo Fisher) and Dapi (1:5000 from working solution at 5 mg/ml; Life Technologies; D1306). Sections were washed 3 times in 0.05% Triton X-100/PBS and mounted with Fluoromount-G (SouthernBiotech).
We analyzed the lesions at 7 days post-lesion (7 dpl), when newly formed OLs have started to remyelinate the lesion in this model. The lesion area was identified by immunodetection of the high cellular density with DAPI staining, reduction of myelin with myelin oligodendrocyte glycoprotein (MOG), and abundance of microglia/macrophages with Iba1 and Cd68. We determined the effect of the drugs to promote oligodendrogenesis at the lesion site by combinatory immunodetection of Olig2, CC1 and Olig1, allowing to distinguish OPCs (Olig2^high/CC1^−/Olig1^nuclear-cyto cells) and three stages in OL differentiation: iOL1 (Olig2^high/CC1^high/Olig1^− cells), iOL2 (Olig2^high/CC1^high/Olig1^high-cyto cells), and mOL (Olig2^low/CC1^low/Olig1^low cells). […] Given the increase in OL differentiation by the drugs administration, without diminishing the pool of OPCs in the lesion area, we assessed for the proliferative status of OPCs, using Mcm2 and Ki67 proliferative markers, finding that both drugs promote a ˜2-fold increase in the density of proliferative OPCs (FIG. 4D) and in the proportion of proliferative OPCs (FIG. 4E).
To investigate the possible anti-inflammatory and pro-regenerative activity of these drugs, we performed staining for microglia/macrophages (Iba1+ cells), their active phagocytic status (Cd68+ cells), together with myelin (MOG) and cell density (DAPI) to identify the lesion area.

CCCCOc1ccc(C(=O)CCN2CCCCC2)cc1.Cl [Sm5, Dyclonine hydrochloride]
morphological complexity of OLs (PLP+ cells) [1]: strongly increased
number of oligodendroglial cells in the remyelinating area (Olig2+ cells) ([2]; sm5 at 5 μg per g, control 942.5±265.7, FIG. 4B): 1208±281.1 Olig2+ cells per mm^2
density of OPCs (Olig2high/CC1−/Olig1nuclear-cyto cells) in the lesion area ([2]; FIG. 4C): did not change
increase of the differentiation ratio (number of OLs per OPC) versus control ([2]; FIG. 4F): 2 fold
pro-regenerative microglia (Arg1+ cells) ([2]; FIG. 4I): corresponding increase
actively phagocytic microglia/macrophages (Cd68+ cells) ([2]; control 22.45%, FIG. 4H): reduction of their phagocytic population
differentiation ratio (number of OLs per OPC) ([2]; control 25% (1 OLs for 4 OPCs), FIG. 4F): 50%
surface occupied by Iba1+ microglia/macrophages in the lesion area ([2]; control 33.64%, FIG. 4G): trend to reduce
increase of each stage of OL differentiation (iOL1, iOL2 & mOL) ([2]; versus control): more moderate effect only significant at the iOL2 stage
increase in the density of proliferative OPCs (Mcm2, Ki67 markers) ([2]; versus control, FIG. 4D): ~2 fold
increase in the proportion of proliferative OPCs ([2]; versus control, FIG. 4E): ~2 fold
